Source: ChEMBL document CHEMBL1151757, “Synthesis, radiosynthesis, and biological evaluation of fluorine-18-labeled 2beta-carbo(fluoroalkoxy)-3beta-(3'-((Z)-2-haloethenyl)phenyl)nortropanes: candidate radioligands for in vivo imaging of the serotonin transporter with positron emission tomography” (J Med Chem, 2008)

Tests used:
[1] = Ratio of drug uptake in pons to cerebellum in anesthetized cynomolgus monkey after 95 mins postinjection; format: ADME, organism-based, Macaca fascicularis; settings: in vivo
[2] = Ratio of drug uptake in pons to cerebellum in anesthetized cynomolgus monkey after 125 mins postinjection; format: ADME, organism-based, Macaca fascicularis; settings: in vivo
[3] = Ratio of drug uptake in medulla to cerebellum in anesthetized cynomolgus monkey after 1.5 mins postinjection; format: ADME, organism-based, Macaca fascicularis; settings: in vivo, 0.025 h
[4] = Ratio of drug uptake in medulla to cerebellum in anesthetized cynomolgus monkey after 195 mins postinjection; format: ADME, organism-based, Macaca fascicularis; settings: in vivo, 3.25 h
[5] = Drug uptake in anesthetized cynomolgus monkey brain occipital lobe after 6.5 mins postinjection; format: ADME, organism-based, Macaca fascicularis; design: unit not given here; settings: in vivo
[6] = Drug uptake in anesthetized cynomolgus monkey brain occipital lobe after 65 mins postinjection; format: ADME, organism-based, Macaca fascicularis; settings: in vivo
[7] = Drug uptake in anesthetized cynomolgus monkey brain frontal lobe after 2.5 mins postinjection; format: ADME, organism-based, Macaca fascicularis; settings: in vivo
[8] = Drug uptake in anesthetized cynomolgus monkey brain frontal lobe after 27.5 mins postinjection; format: ADME, organism-based, Macaca fascicularis; settings: in vivo
[9] = Drug uptake in anesthetized cynomolgus monkey brain frontal lobe after 35 mins postinjection; format: ADME, organism-based, Macaca fascicularis; settings: in vivo
[10] = Drug uptake in anesthetized cynomolgus monkey brain frontal lobe after 95 mins postinjection; format: ADME, organism-based, Macaca fascicularis; settings: in vivo
[11] = Drug uptake in anesthetized cynomolgus monkey brain frontal lobe after 215 mins postinjection; format: ADME, organism-based, Macaca fascicularis; settings: in vivo
Putamen [12] = assay: Drug uptake in anesthetized cynomolgus monkey brain putamen after 145 mins postinjection; format: ADME, organism-based, Macaca fascicularis; settings: in vivo
Putamen [13] = assay: Drug uptake in anesthetized cynomolgus monkey brain putamen after 165 mins postinjection; format: ADME, organism-based, Macaca fascicularis; settings: in vivo, 2.75 h
Putamen [14] = assay: Drug uptake in anesthetized cynomolgus monkey brain putamen after 235 mins postinjection; format: ADME, organism-based, Macaca fascicularis; settings: in vivo
[15] = Ratio of drug uptake in occipital lobe to cerebellum in anesthetized cynomolgus monkey after 235 mins postinjection; format: ADME, organism-based, Macaca fascicularis; settings: in vivo
[16] = Ratio of drug uptake in frontal lobe to cerebellum in anesthetized cynomolgus monkey after 95 mins postinjection; format: ADME, organism-based, Macaca fascicularis; settings: in vivo
Pons [17] = assay: Drug uptake in anesthetized cynomolgus monkey brain pons after 0.5 mins postinjection; format: ADME, organism-based, Macaca fascicularis; settings: in vivo
Pons [18] = assay: Drug uptake in anesthetized cynomolgus monkey brain pons after 3.5 mins postinjection; format: ADME, organism-based, Macaca fascicularis; settings: in vivo
Pons [19] = assay: Drug uptake in anesthetized cynomolgus monkey brain pons after 4.5 mins postinjection; format: ADME, organism-based, Macaca fascicularis; settings: in vivo, 0.075 h
Pons [20] = assay: Drug uptake in anesthetized cynomolgus monkey brain pons after 105 mins postinjection; format: ADME, organism-based, Macaca fascicularis; settings: in vivo, 1.75 h
Thalamus [21] = assay: Drug uptake in anesthetized cynomolgus monkey brain thalamus after 205 mins postinjection; format: ADME, organism-based, Macaca fascicularis; settings: in vivo
Pons [22] = assay: Drug uptake in anesthetized cynomolgus monkey brain pons after 195 mins postinjection; format: ADME, organism-based, Macaca fascicularis; settings: in vivo, 3.25 h
Pons [23] = assay: Drug uptake in anesthetized cynomolgus monkey brain pons after 205 mins postinjection; format: ADME, organism-based, Macaca fascicularis; settings: in vivo
[24] = Drug uptake in anesthetized cynomolgus monkey brain cerebellum after 205 mins postinjection; format: ADME, organism-based, Macaca fascicularis; settings: in vivo
Caudate [25] = assay: Drug uptake in anesthetized cynomolgus monkey brain caudate after 195 mins postinjection; format: ADME, organism-based, Macaca fascicularis, Caudate nucleus; settings: in vivo, 3.25 h
Caudate [26] = assay: Drug uptake in anesthetized cynomolgus monkey brain caudate after 205 mins postinjection; format: ADME, organism-based, Macaca fascicularis, Caudate nucleus; settings: in vivo
[27] = Ratio of drug uptake in caudate to cerebellum in anesthetized cynomolgus monkey after 18.5 mins postinjection; format: ADME, organism-based, Macaca fascicularis; settings: in vivo
Pons [28] = assay: Drug uptake in anesthetized cynomolgus monkey brain pons after 165 mins postinjection; format: ADME, organism-based, Macaca fascicularis; settings: in vivo, 2.75 h
Medulla [29] = assay: Drug uptake in anesthetized cynomolgus monkey brain medulla after 0.5 mins postinjection; format: ADME, organism-based, Macaca fascicularis; settings: in vivo
Medulla [30] = assay: Drug uptake in anesthetized cynomolgus monkey brain medulla after 4.5 mins postinjection; format: ADME, organism-based, Macaca fascicularis; settings: in vivo, 0.075 h
Medulla [31] = assay: Drug uptake in anesthetized cynomolgus monkey brain medulla after 9.5 mins postinjection; format: ADME, organism-based, Macaca fascicularis; settings: in vivo
Medulla [32] = assay: Drug uptake in anesthetized cynomolgus monkey brain medulla after 105 mins postinjection; format: ADME, organism-based, Macaca fascicularis; settings: in vivo, 1.75 h
[33] = Ratio of drug uptake in putamen to cerebellum in anesthetized cynomolgus monkey after 3.5 mins postinjection; format: ADME, organism-based, Macaca fascicularis; settings: in vivo
[34] = Ratio of drug uptake in putamen to cerebellum in anesthetized cynomolgus monkey after 35 mins postinjection; format: ADME, organism-based, Macaca fascicularis; settings: in vivo
Medulla [35] = assay: Drug uptake in anesthetized cynomolgus monkey brain medulla after 125 mins postinjection; format: ADME, organism-based, Macaca fascicularis; settings: in vivo
Medulla [36] = assay: Drug uptake in anesthetized cynomolgus monkey brain medulla after 235 mins postinjection; format: ADME, organism-based, Macaca fascicularis; settings: in vivo
[37] = Drug uptake in anesthetized cynomolgus monkey brain cerebellum after 0.5 mins postinjection; format: ADME, organism-based, Macaca fascicularis; settings: in vivo
[38] = Ratio of drug uptake in putamen to cerebellum in anesthetized cynomolgus monkey after 215 mins postinjection; format: ADME, organism-based, Macaca fascicularis; settings: in vivo
[39] = Ratio of drug uptake in thalamus to cerebellum in anesthetized cynomolgus monkey after 155 mins postinjection; format: ADME, organism-based, Macaca fascicularis; settings: in vivo
Caudate [40] = assay: Drug uptake in anesthetized cynomolgus monkey brain caudate after 2.5 mins postinjection; format: ADME, organism-based, Macaca fascicularis, Caudate nucleus; settings: in vivo
Caudate [41] = assay: Drug uptake in anesthetized cynomolgus monkey brain caudate after 3.5 mins postinjection; format: ADME, organism-based, Macaca fascicularis, Caudate nucleus; settings: in vivo
Caudate [42] = assay: Drug uptake in anesthetized cynomolgus monkey brain caudate after 22.5 mins postinjection; format: ADME, organism-based, Macaca fascicularis, Caudate nucleus; settings: in vivo, 0.375 h
Caudate [43] = assay: Drug uptake in anesthetized cynomolgus monkey brain caudate after 55 mins postinjection; format: ADME, organism-based, Macaca fascicularis, Caudate nucleus; settings: in vivo
Caudate [44] = assay: Drug uptake in anesthetized cynomolgus monkey brain caudate after 95 mins postinjection; format: ADME, organism-based, Macaca fascicularis, Caudate nucleus; settings: in vivo
Caudate [45] = assay: Drug uptake in anesthetized cynomolgus monkey brain caudate after 235 mins postinjection; format: ADME, organism-based, Macaca fascicularis, Caudate nucleus; settings: in vivo
Thalamus [46] = assay: Drug uptake in anesthetized cynomolgus monkey brain thalamus after 3.5 mins postinjection; format: ADME, organism-based, Macaca fascicularis; design: unit not given here; settings: in vivo
Putamen [47] = assay: Drug uptake in anesthetized cynomolgus monkey brain putamen after 9.5 mins postinjection; format: ADME, organism-based, Macaca fascicularis; design: unit not given here; settings: in vivo
Thalamus [48] = assay: Drug uptake in anesthetized cynomolgus monkey brain thalamus after 55 mins postinjection; format: ADME, organism-based, Macaca fascicularis; design: unit not given here; settings: in vivo
Thalamus [49] = assay: Drug uptake in anesthetized cynomolgus monkey brain thalamus after 65 mins postinjection; format: ADME, organism-based, Macaca fascicularis; design: unit not given here; settings: in vivo
Midbrain [50] = assay: Drug uptake in anesthetized cynomolgus monkey brain midbrain after 3.5 mins postinjection; format: ADME, organism-based, Macaca fascicularis; design: unit not given here; settings: in vivo
Midbrain [51] = assay: Drug uptake in anesthetized cynomolgus monkey brain midbrain after 22.5 mins postinjection; format: ADME, organism-based, Macaca fascicularis; design: unit not given here; settings: in vivo, 0.375 h
Midbrain [52] = assay: Drug uptake in anesthetized cynomolgus monkey brain midbrain after 27.5 mins postinjection; format: ADME, organism-based, Macaca fascicularis; design: unit not given here; settings: in vivo
Midbrain [53] = assay: Drug uptake in anesthetized cynomolgus monkey brain midbrain after 55 mins postinjection; format: ADME, organism-based, Macaca fascicularis; design: unit not given here; settings: in vivo
Midbrain [54] = assay: Drug uptake in anesthetized cynomolgus monkey brain midbrain after 75 mins postinjection; format: ADME, organism-based, Macaca fascicularis; design: unit not given here; settings: in vivo, 1.25 h
Midbrain [55] = assay: Drug uptake in anesthetized cynomolgus monkey brain midbrain after 85 mins postinjection; format: ADME, organism-based, Macaca fascicularis; design: unit not given here; settings: in vivo
Midbrain [56] = assay: Drug uptake in anesthetized cynomolgus monkey brain midbrain after 125 mins postinjection; format: ADME, organism-based, Macaca fascicularis; design: unit not given here; settings: in vivo

O=C(OCC[18F])C1C2CCC(CC1c1ccc(/C=C\I)cc1)N2 (stereo unspecified)
Ratio [1]: 1.6
Ratio [2]: 2.1
Ratio [3]: 1.4
Ratio [4]: 2.6
Drug uptake [5]: 1.21
Drug uptake [6]: 2.38
Drug uptake [7]: 0.24
Drug uptake [8]: 1.76
Drug uptake [9]: 1.86
Drug uptake [10]: 2.03
Drug uptake [11]: 1.6
Drug uptake (Putamen [12]): 4.31
Drug uptake (Putamen [13]): 4.22
Drug uptake (Putamen [14]): 3.83
Ratio [15]: 1.6
Ratio [16]: 0.9
Drug uptake (Pons [17]): 0
Drug uptake (Pons [18]): 0.67
Drug uptake (Pons [19]): 0.8
Drug uptake (Pons [20]): 3.4
Drug uptake (Thalamus [21]): 3.59
Drug uptake (Pons [22]): 3.42
Drug uptake (Pons [23]): 3.34
Drug uptake [24]: 1.22
Drug uptake (Caudate [25]): 2.85
Drug uptake (Caudate [26]): 2.77
Ratio [27]: 0.7
Drug uptake (Pons [28]): 3.54
Drug uptake (Medulla [29]): 0
Drug uptake (Medulla [30]): 1.36
Drug uptake (Medulla [31]): 2.45
Drug uptake (Medulla [32]): 3.82
Ratio [33]: 1
Ratio [34]: 1.4
Drug uptake (Medulla [35]): 3.81
Drug uptake (Medulla [36]): 3.3
Drug uptake [37]: 0
Ratio [38]: 3.3
Ratio [39]: 2.7
Drug uptake (Caudate [40]): 0.29
Drug uptake (Caudate [41]): 0.56
Drug uptake (Caudate [42]): 2.05
Drug uptake (Caudate [43]): 2.73
Drug uptake (Caudate [44]): 3.05
Drug uptake (Caudate [45]): 2.61
Drug uptake (Thalamus [46]): 0.76
Drug uptake (Putamen [47]): 2.38
Drug uptake (Thalamus [48]): 3.78
Drug uptake (Thalamus [49]): 3.92
Drug uptake (Midbrain [50]): 0.84
Drug uptake (Midbrain [51]): 3.04
Drug uptake (Midbrain [52]): 3.19
Drug uptake (Midbrain [53]): 4.01
Drug uptake (Midbrain [54]): 4.41
Drug uptake (Midbrain [55]): 4.42
Drug uptake (Midbrain [56]): 4.62
